According to patent US20220274987A1, “PYRAZINO [1,2-B]QUINAZOLINE-3,6-DIONES DERIVATIVES, THEIR PRODUCTION AND USES THEREOF” (CIIMAR -CENTRO INTERDISCIPLINAR DE INVESTIGAÇÃO MARINHA E …, priority 2019, published 2022):
Values after ≈ are worked out from the molar mass of the structure shown. Read-outs that look alike come from different tables or passages of the source.

How the values were obtained:
[1] = tested on: Plasmodium falciparum 3D7 strain; experiment: In vitro susceptibility assay of P. falciparum, SYBR Green I; format: cell-based; conditions: for IC50: Plasmodium falciparum; for antimalarial activity (in words): P. falciparum 3D7
Method: The principle of the in vitro susceptibility test to malaria is to assess the degree of development of parasites P. falciparum in the presence of different concentrations of the compounds.
In the present disclosure, the antimalarial activity was also evaluated. Each compound was lyophilized and solubilized in DMSO (Sigma-Aldrich) to obtain a final concentration of 5 mM. Some intermediate dilutions were made to achieve the final concentration of 10 μM in the first well of the plate.
In an embodiment, the culture of P. falciparum was carried out as follows. […] Parasites were cultivated at 5% hematocrit, 37° C. and atmosphere with 5% of CO2, human serum was replaced with 0.5% AlbuMAXII (Invitrogen™) in the culture medium. Synchronized cultures were obtained by treatments with a 5% (m/v) solution of D-sorbitol (Sigma-Aldrich).
In the present disclosure, the in vitro susceptibility assay of P. falciparum using SYBR Green I was carried out as follows. […] Briefly, early ring stage parasites (>80% of rings, 3% haematocrit and 1% parasitaemia) were tested in duplicate in a 96-well plate and incubated with the compounds for 48 h (37° C., 5% CO2), parasite growth was assessed with SYBR Green I (Thermo Fisher Scientific). Each compound was tested in concentrations ranging from 10 to 0.001 μM. Fluorescence intensity was measured with a microplate reader with excitation and emission wavelengths of 485 and 535 nm, respectively, and analysed by nonlinear regression using GraphPad Prism 5 demo version to determine

[2] = tested on: E. faecalis A5/102 (VRE); experiment: MIC/MBC broth dilution (CLSI), VRE sensitive to ampicillin; format: cell-based; conditions: Enterococcus faecalis
Source text: (§1) In the present disclosure, two Gram-positive—Staphylococcus aureus ATCC 29213 and Enterococcus faecalis ATCC […] and two Gram-negative—Escherichia coli ATCC 25922 and Pseudomonas aeruginosa ATCC 27853—reference bacterial strains were used. When it was possible to determine a minimal inhibitory concentration (MIC) value for these strains, clinically relevant strains were also used. These included methicillin-resistant S. uareus (MRSA) 66/1, isolated from public buses, as well as a isolate sensitive to the most commonly used antibiotic families (S. aureus 40/61/24) and two vancomycin-resistant Enterococcus (VRE) strains isolated from river water, E. faecalis B3/101 and E. faecalis A5/102, which is sensitive to ampicillin. Frozen stocks of all strains were grown on Mueller-Hinton agar (MH-BioKar Diagnostics, Allone, France) at 37° C. for 24 h. All bacterial strains were sub-cultured on MH agar and incubated overnight at 37° C. before each assay, in order to obtain fresh cultures.
(§2) An initial screening of the antibacterial activity of the compounds was performed by the Kirby-Bauer disk diffusion method, as recommended by the Clinical and Laboratory Standards institute (CLSI). Briefly, sterile 6 mm blank paper disks (Oxoid, Basingstoke, England) impregnated with 15 μg of each compound were placed on inoculated MH agar plates. A blank disk with DMSO was used as a negative control. MH inoculated plates were incubated for 18-20 hours at 37° C. At the end of the incubation, the inhibition halos where measured. The minimal inhibitory concentration (MIC) was used to determine the antibacterial activity of each compound, in accordance with the recommendations of the CLSI. Two-fold serial dilutions of the compounds were prepared in Mueller-Hinton Broth 2 (MHB2-Sigma-Aldrich, St. Louis, Mo., USA) within the concentration range of 0.062-64 μg/mL. Cefotaxime (CTX) ranging between 0.031-16 μg/mL was used as a control. Sterility and growth controls were included in each assay. Purity check and colony counts of the inoculum suspensions were also performed in order to ensure that the final inoculum density closely approximates the intended number ([…]). The MIC was determined as the lowest concentration at which no visible growth was observed. The minimal bactericidal concentration (MBC) was assessed by spreading 10 μL of culture collected from wells showing no visible growth on MH agar plates. The MBC was determined as the lowest concentration at which no colonies grew after 16-18 hours incubation at 37° C. These assays were performed in duplicate.

[3] = tested on: Staphylococcus aureus ATCC 29213; experiment: MIC/MBC broth dilution (CLSI), S. aureus reference strain; format: cell-based; conditions: S. aureus ATCC 29213; for MBC / MIC: Staphylococcus aureus, ATCC29213; for MIC: read-out: MIC
Source text: as §1, §2

[4] = tested on: E. faecalis ATCC 29212; experiment: MIC/MBC broth dilution (CLSI), E. faecalis reference strain; format: cell-based, Enterococcus faecalis
Source text: as §1, §2

[5] = tested on: E. faecalis B3/101 (VRE); experiment: MIC/MBC broth dilution (CLSI), VRE; format: cell-based; conditions: Enterococcus faecalis
Source text: as §1, §2

[6] = tested on: S. aureus 40/61/24; experiment: MIC/MBC broth dilution (CLSI), sensitive clinical isolate; format: cell-based; conditions: Staphylococcus aureus; for MIC: 40/61/24; for MBC: S. aureus 40/61/24
Source text: as §1, §2

[7] = tested on: S. aureus 66/1 (MRSA); experiment: MIC/MBC broth dilution (CLSI), MRSA; format: cell-based; conditions: Staphylococcus aureus
Source text: as §1, §2

[8] = P. falciparum (3D7), 48 h, read-out: IC50
[9] = Enterococcus faecalis, ATCC29212

`CCN(CC)CCCC(C)Nc1ccnc2cc(Cl)ccc12` (stereo not drawn) [CQ (6), chloroquine, reference compound] showed an IC50 ([1]; 3D7) of 0.01508 ± 8e-05 µM.
For `CC(C)[C@@H]1NC(=O)[C@H](Cc2c[nH]c3ccccc23)n2c1nc1ccccc1c2=O` [Compound 10], the “antimalarial activity (in words)” value [1] was “inactive”.
In the case of `CC(C)[C@H]1NC(=O)[C@@H](Cc2c[nH]c3ccccc23)n2c1nc1ccccc1c2=O` [Compound 13], the “antimalarial activity (in words)” value [1] is reported as “decreased activity” and the IC50 [1, 8] is reported as 0.15 ± 0.05 µM.
In the case of `CC(C)C[C@@H]1NC(=O)[C@H](Cc2c[nH]c3ccccc23)n2c1nc1ccccc1c2=O` [Compound 14], the “antimalarial activity (in words)” value [1] is reported as “inactive”.
In the case of `CC(C)C[C@H]1NC(=O)[C@H](Cc2c[nH]c3ccccc23)n2c1nc1ccccc1c2=O` [Compound 15], the IC50 [1, 8] is reported as 2 ± 0.32 µM.
In the case of `CC(C)C[C@H]1NC(=O)[C@@H](Cc2c[nH]c3ccccc23)n2c1nc1ccccc1c2=O` [Compound 17], the “antimalarial activity (in words)” value [1] is reported as “decreased activity” and the IC50 [1, 8] is reported as 0.47 ± 0.22 µM.
With `O=C1N[C@H](Cc2ccc(O)cc2)c2nc3ccccc3c(=O)n2[C@H]1Cc1c[nH]c2ccccc12` [Compound 25] the IC50 [1, 8] was 4.18 ± 0.03 µM.
In the case of `C[C@H]1NC(=O)[C@@H](Cc2c[nH]c3ccccc23)n2c1nc1ccccc1c2=O` [Compound 26], the IC50 [1, 8] is reported as 3.68 ± 0.62 µM.
`CC(C)[C@@H]1NC(=O)[C@@H](Cc2c[nH]c3ccccc23)n2c1nc1ccc(Cl)cc1c2=O` [Compound 27, (1S, 4R)-4-((1H-indol-3-yl)methyl)-8-chloro-1-isopropyl-1,2-dihydro-6H-pyrazino[2,1-b]quinazoline-3,6(4H)-dione] was tested, and the MBC [2] was greater than 64 µg/mL, the MIC [2] was 64 µg/mL (≈ 152 µM) and the “antibacterial (inhibitory) effect (in words)” value [3] was “inhibitory effect”. The MBC [3] was greater than 64 µg/mL, the MIC [3] was 32 µg/mL (≈ 76 µM) and the MIC [4] was 64 µg/mL (≈ 152 µM). For the same molecule, the “antibacterial (inhibitory) effect (in words)” value [4] was “inhibitory effect”, the MBC [4, 9] was greater than 64 µg/mL and the MIC [4, 9] was 32 µg/mL (≈ 76 µM). For the same molecule, the MBC [5] was greater than 64 µg/mL, the MIC [5] was greater than 64 µg/mL and the MIC [6] was 64 µg/mL (≈ 152 µM). For the same molecule, the MBC [6] was greater than 64 µg/mL, the MBC [7] was greater than 64 µg/mL and the MIC [7] was greater than 64 µg/mL.
For `CC(C)C[C@@H]1NC(=O)[C@@H](Cc2c[nH]c3ccccc23)n2c1nc1ccc(Cl)cc1c2=O` [Compound 28], the MBC [2] was greater than 64 µg/mL, the MIC [2] was 64 µg/mL (≈ 147 µM) and the “antibacterial (inhibitory) effect (in words)” value [3] was “inhibitory effect”. For the same molecule, the MBC [3] was greater than 64 µg/mL, the MIC [3] was 32 µg/mL (≈ 73.6 µM) and the “antibacterial (inhibitory) effect (in words)” value [4] was “inhibitory effect”. For the same molecule, the MBC [4, 9] was greater than 64 µg/mL, the MIC [4, 9] was 32 µg/mL (≈ 73.6 µM) and the MBC [5] was greater than 64 µg/mL. For the same molecule, the MIC [5] was greater than 64 µg/mL, the MIC [6] was 64 µg/mL (≈ 147 µM) and the MBC [6] was greater than 64 µg/mL. The MBC [7] was greater than 64 µg/mL and the MIC [7] was greater than 64 µg/mL.
